Holding throughout (format): biochemical
For one test, the target named is T1, ENZ1 SEQ ID N°1 (Catenulispora acidiphila, UniProt C7QJ42).
T1 construct: His6 (hexahistidine, inserted after the initial methionine) (N); made in house; host or cells: E. coli BL21(DE3) plysE
T1 sequence (C7QJ42 1-358): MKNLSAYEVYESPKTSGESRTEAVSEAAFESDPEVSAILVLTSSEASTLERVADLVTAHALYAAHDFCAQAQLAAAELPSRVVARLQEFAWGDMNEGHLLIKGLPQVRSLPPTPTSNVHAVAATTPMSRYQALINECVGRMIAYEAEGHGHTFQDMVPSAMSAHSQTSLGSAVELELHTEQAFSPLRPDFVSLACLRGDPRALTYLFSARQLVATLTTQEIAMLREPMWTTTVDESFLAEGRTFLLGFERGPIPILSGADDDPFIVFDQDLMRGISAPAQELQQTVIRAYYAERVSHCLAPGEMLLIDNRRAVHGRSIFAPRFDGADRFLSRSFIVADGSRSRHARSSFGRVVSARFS
The test can be described thus: Substrate selectivity screening of hydroxylase (conversion by HPLC after Fmoc-Cl derivatization). The following applies: enzyme 0.08 mg/mL, molar ratio α-ketoglutarate/substrate 15/10, Hepes buffer 50 mM pH 7,5, Mohr's salt 1mM, without sodium ascorbate, room temperature, three hours. As to the method:
(§1) Enzymatic reaction medium (0.2 µmole, leq.), borate buffer 0,2M pH 7.7 (80 µL) and Fmoc-Cl solution7.5 mM in acetone (100 µL, 0.75 µmole, 3.75 eq) were hand shaked in a closed 1.50 mL eppendorf for one minute. The aqueous layer was extracted with petroleum ether (3*1 mL) to eliminate excess of Fmoc-Cl. 70 µL of the aqueous phase were withdrawn, diluted with 70 µL of acetonitrile and injected into the HPLC. For substrates with two amine functions, 100 µL of Fmoc-Cl solution 15 mM were used.
(§2) Conditions for HPLC analysis: Atlantis® T3 (3 µm 4.5*150 mm) at 35°C with the gradient 50-86% eluent B (MeCN + 0.1% TFA) and eluent A (H2O + 0.1% TFA) in 20 min at 1 mL/min.
(§3) Enzymes (0.08 mg/mL) were screened against substrates (molar ratio α-ketoglutarate/substrate 15/10) in Hepes buffer 50 mM pH 7,5, with Mohr's salt at 1mM and without sodium ascorbate, at room temperature for three hours. The potential conversions of the substrates were determined by HPLC after Fmoc-Cl derivatization as section III here above.

The target of the next test is T2, ENZ4 SEQ ID NO:4 (Catenulispora acidiphila, UniProt C7Q942).
T2 construct: His6 (hexahistidine, inserted after the initial methionine) (N); made in house; host or cells: E. coli BL21(DE3) plysE
T2 sequence (C7Q942 1-343): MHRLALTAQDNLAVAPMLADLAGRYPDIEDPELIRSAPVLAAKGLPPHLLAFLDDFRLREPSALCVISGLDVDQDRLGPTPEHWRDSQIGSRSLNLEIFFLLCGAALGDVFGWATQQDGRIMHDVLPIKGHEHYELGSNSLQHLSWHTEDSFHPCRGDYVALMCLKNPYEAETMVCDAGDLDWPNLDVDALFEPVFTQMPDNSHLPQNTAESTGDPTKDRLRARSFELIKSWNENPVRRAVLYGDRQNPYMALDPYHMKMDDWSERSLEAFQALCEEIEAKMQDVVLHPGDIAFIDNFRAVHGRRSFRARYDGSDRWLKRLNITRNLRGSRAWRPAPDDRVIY
Described as above. Conditions: enzyme 0.08 mg/mL, molar ratio α-ketoglutarate/substrate 15/10, Hepes buffer 50 mM pH 7,5, Mohr's salt 1mM, without sodium ascorbate, room temperature, three hours. Here is the method: as §1, §2, §3

A further test addresses T3, ENZ5 (SEQ ID NO:9) (Niastella koreensis, UniProt G8T8D0).
T3 construct: His6 (hexahistidine, inserted after the initial methionine) (N); made in house; host or cells: E. coli BL21(DE3) plysE
T3 sequence (G8T8D0 1-371): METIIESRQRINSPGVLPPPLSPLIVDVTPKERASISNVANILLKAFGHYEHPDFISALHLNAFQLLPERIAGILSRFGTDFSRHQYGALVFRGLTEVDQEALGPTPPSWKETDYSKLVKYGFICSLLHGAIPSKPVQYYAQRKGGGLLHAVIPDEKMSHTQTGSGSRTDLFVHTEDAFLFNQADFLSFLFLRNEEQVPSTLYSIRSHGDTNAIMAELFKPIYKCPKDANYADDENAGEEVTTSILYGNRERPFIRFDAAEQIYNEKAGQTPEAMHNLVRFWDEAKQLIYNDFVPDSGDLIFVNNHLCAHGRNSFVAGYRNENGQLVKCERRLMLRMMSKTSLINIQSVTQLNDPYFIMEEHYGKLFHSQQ
The test can be described thus: Hydroxylation capability, HPLC analysis of reaction media after derivatization. Here is the method:
as §3
(§4) The hydroxylation capability of two other enzymes, namely ENZ6 (SEQ ID NO:10) and ENZ5 (SEQ ID NO:9) were also assessed. The amino sequence of ENZ6 has 79% of amino acid identity with SEQ ID NO:2 of ENZ2 while the amino sequence of ENZ5 has 72% of amino acid identity with SEQ ID NO:3 of ENZ3. […] As shown in part VI, ENZ6 and ENZ5 provide (4R)-hydroxy-L-lysine from L-lysine similarly to ENZ2 and ENZ3. Thus ENZ6 and ENZ5 are likely to have the same substrate selectivity and provide similar products as ENZ2 and ENZ3.

In the next test the target is T4, ENZ6 (SEQ ID NO:10) (Flavobacterium sp., UniProt J3BZS6).
T4 construct: His6 (hexahistidine, inserted after the initial methionine) (N); made in house; host or cells: E. coli BL21(DE3) plysE
Described as above. Here is the method: as §3, §4

A further test concerns the target T5, ENZ1 (SEQ ID NO:1) (Catenulispora acidiphila, UniProt C7QJ42).
T5 construct: His6 (hexahistidine, inserted after the initial methionine) (N); made in house; host or cells: E. coli BL21(DE3) plysE
T5 sequence (C7QJ42 1-358): T1 sequence (C7QJ42 1-358)
The test can be described thus: Enzymatic hydroxylation of L-lysine, 10 mL scale, conversion by HPLC (protocol A). Conditions: ENZ1 0.024 mg/mL, L-lysine 10 mM, α-ketoglutarate 15 mM, sodium ascorbate 2.5 mM, Fe(II) 1 mM, Hepes pH 7.50, room temperature, 18h. As to the method: as §1, §2
Enzymatic reaction was carried out in 250 mL glass erlenmeyer flask for a total volume of 4*10 mL. Water (4.8 mL), Hepes buffer 1M pH 7.50 (0.5 mL, 50 mM), L-lysine 50 mM (2 mL, 10 mM), α-ketoglutarate 150 mM (1 mL, 15 mM), sodium ascorbate 100 mM (0.25 mL, 2.5 mM), ammonium Iron(II) sulfate hexahydrate 10 mM (1 mL, 1 mM) were poured into the erlenmeyer flask. The reaction was started by the enzyme addition (0.53 mg/mL, 0.45 mL, final concentration 0.024 mg/mL). The reaction mixture was orbitally shaken (300 rpm) at room temperature for 18h. The conversion of L-lysine into 3-hydroxy-L-lysine (94%) was determined by HPLC after derivatization with Fmoc-Cl according to protocol A.

T4 sequence (J3BZS6 whole entry): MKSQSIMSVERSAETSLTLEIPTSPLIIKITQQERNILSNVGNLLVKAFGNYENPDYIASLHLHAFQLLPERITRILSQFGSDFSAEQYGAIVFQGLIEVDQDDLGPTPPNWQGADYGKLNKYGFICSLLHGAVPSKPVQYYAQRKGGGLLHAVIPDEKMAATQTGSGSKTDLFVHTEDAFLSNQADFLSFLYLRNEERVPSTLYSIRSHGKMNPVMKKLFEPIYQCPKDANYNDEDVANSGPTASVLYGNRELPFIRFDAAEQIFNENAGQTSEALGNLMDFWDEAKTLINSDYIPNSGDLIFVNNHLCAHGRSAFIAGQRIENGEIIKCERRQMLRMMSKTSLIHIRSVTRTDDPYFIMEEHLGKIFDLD

As to `NCCCC[C@H](N)C(=O)O` [L-lysine], the “potential conversions of the substrates, ENZ1 SEQ ID N°1” value on ENZ1 SEQ ID N°1 is given as “positive”. The “potential conversions of the substrates, ENZ4 SEQ ID NO:4” value on ENZ4 SEQ ID NO:4 is on record as “negative”. At ENZ5 (SEQ ID NO:9), the “hydroxylation capability of ENZ5” value is given as “capable of hydroxylating”. Moreover, the “hydroxylation capability of ENZ6” value at ENZ6 (SEQ ID NO:10) is recorded as “capable of hydroxylating”. For the same molecule, the “conversion of L-lysine into 3-hydroxy-L-lysine” value on ENZ1 (SEQ ID NO:1) worked out at 94%.

Values taken from patent EP2876156A1 (COMMISSARIAT A L'ENERGIE ATOMIQUE ET AUX ENERGIES …, priority 2013, dated 2015).
